From patent US20150291507A1, “PANTHENYL DOCOSAHEXAENEOATE AND ITS USE FOR TREATING AND PREVENTING CARDIOVASCULAR DISEASES” (PIERRE FABRE MEDICAMENT, priority 2010, published 2015)

System: atrial refractory period
Assay: Atrial refractory period in the anesthetized pig (electrical stimulation S1/S2, left atrium)
Type: in vivo, pig (male Landrace)
Procedure: The study was carried out on male Landrace pigs (20-25 kg). Anesthesia was maintained with isoflurane (0.5-3% of lung tidal volume). Number of respirations and tidal volume were adjusted so as to maintain blood gases within physiological limits. A left lateral thoracotomy was performed in the fourth intercostal space and the pericardium was opened. Polyethylene-filled catheters were introduced into the nearest thoracic artery to measure arterial pressure during the experiment and in the left saphenous vein to administer the active products or a control carrier. An atrial electrocardiogram (ECG) was continuously recorded, with three electrodes placed and sutured in the epicardium and the fourth serving as mass and placed in the thoracic muscles. Thus, the ECG provides information on atrial activity. Two bipolar electrodes were also placed in the left atrium at an interval of 0.3 cm and were maintained by fishing hooks. Electrical stimulations were carried out by a stimulator (DS 8000, WPI). […] The panthenyl docosahexaenoate of formula A (quantity: 10+10 mg/kg, n=4) was administered in the form of a bolus over 1 minute and then allowed to diffuse for 40 minutes. […]

For `CC/C=C\C/C=C\C/C=C\C/C=C\C/C=C\C/C=C\CCC(=O)OCCCNC(=O)C(O)C(C)(C)CO` (stereo in doubt) [panthenyl docosahexaenoate of formula A, 3-[(2R)-2,4-dihydroxy-3,3-dimethylbutanamido]propyl(4Z,7Z,10Z,13Z,16Z,19Z)-docosa-4,7,10,13,16,19-hexaenoate], the “increase in atrial refractory periods (ARPs)” value (intravenous 10 mg/kg + 10 mg/kg (bolus over 1 minute, then 40 minutes), anesthetized male Landrace pigs, n=4, p<0.001, placebo -4±3 ms) was 19 ± 2 ms and the “activity on atrial refractory period compared with the panthenol diester” value (same formulation and administration, anesthetized pigs, FIG. 1) was “significantly more active than the panthenol diester”.
